Results on two molecules are retold here after publication PMC3222680 (PLoS ONE, 2011).

For one assay, the target named is T1, αK24′A β-αWT GlyR (Homo sapiens, UniProt P23415+P48167, K304A).
T1 construct: The α R218-Q219 and β R242-Q243 are also the joining sites for chimeras constructed between the ECD and TMD; expressed in transfected cells; host or cells: HEK293 (ATCC)
T1 sequence (P23415 29-449 isoform P23415-2 K304A): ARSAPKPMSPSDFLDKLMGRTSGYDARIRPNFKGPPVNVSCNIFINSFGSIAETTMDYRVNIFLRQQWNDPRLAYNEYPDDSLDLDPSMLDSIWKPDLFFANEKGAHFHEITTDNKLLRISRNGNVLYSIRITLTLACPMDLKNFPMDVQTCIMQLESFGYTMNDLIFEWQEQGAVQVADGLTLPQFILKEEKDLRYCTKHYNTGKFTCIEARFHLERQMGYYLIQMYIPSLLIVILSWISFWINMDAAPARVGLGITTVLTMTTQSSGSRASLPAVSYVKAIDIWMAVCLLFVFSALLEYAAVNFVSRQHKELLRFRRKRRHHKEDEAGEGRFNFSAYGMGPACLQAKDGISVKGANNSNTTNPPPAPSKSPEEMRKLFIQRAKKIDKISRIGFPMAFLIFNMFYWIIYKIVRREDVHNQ
T1 sequence (P48167+P23415 with tags, fused parts or gaps P48167:V266M/P48167:F268Y/P48167:M270L/P48167:M271I/P48167:G272Q/P48167:V273M/P48167:A275I/P48167:T277S/P48167:V282I/P48167:L286I/P48167:P292M/P48167:S295A/P48167:A296P/P48167:P300G): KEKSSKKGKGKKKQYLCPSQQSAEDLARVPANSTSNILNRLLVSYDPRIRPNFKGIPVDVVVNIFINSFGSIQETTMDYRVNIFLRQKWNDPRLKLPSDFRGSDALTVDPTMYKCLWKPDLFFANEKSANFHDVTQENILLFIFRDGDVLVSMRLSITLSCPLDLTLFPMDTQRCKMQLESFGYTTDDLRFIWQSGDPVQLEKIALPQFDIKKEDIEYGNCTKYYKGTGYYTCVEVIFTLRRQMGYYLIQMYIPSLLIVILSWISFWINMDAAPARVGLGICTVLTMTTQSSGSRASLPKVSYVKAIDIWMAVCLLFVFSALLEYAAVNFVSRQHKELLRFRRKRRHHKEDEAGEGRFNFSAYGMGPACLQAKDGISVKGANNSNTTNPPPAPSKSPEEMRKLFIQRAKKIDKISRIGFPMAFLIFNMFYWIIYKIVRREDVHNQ
It counts as cell-based. The protocol: (§1) The human GlyR α1 and β subunit cDNAs were subcloned into the pcDNA3.1zeo+ (Invitrogen) or pGEMHE [44] plasmid vectors for expression in HEK293 cells or Xenopus oocytes, respectively. Site-directed mutagenesis and chimera construction were performed using the QuickChange (Stratagene, La Jolla, CA, USA) mutagenesis and multiple-template-based sequential PCR protocols, respectively.
(§2) For the β-α chimeras used for determining the effect of hyperekplexia-mimicking mutations on α1 β GlyR channel function, the Thr at the M2 6′ position was replaced by a Cys. […] Through such a modification, picrotoxin resistance was used to distinguish the heteromeric α1 β-α GlyR from the homomeric α1 GlyR when the α1 and β-α subunits were co-expressed.
(§3) The effects of the hyperekplexia-mimicking mutations, K24′A, V25′A and Y27′A, were examined on GlyRs expressed in HEK293 cells (ATCC). Details of the HEK293 cell culture, GlyR expression and electrophysiological recording of the HEK293 cells are described elsewhere. Briefly, HEK293 cells were maintained in DMEM supplemented with 10% fetal bovine serum. Cells were transfected using a calcium phosphate precipitation protocol. When co-transfecting the α1 together with the β or any other chimera subunits, their respective cDNAs were combined in a ratio of 1∶10. In addition, the pEGFP-N1 (Clontech) was co-transfected to facilitate identifying the transfected cells. […] Cells were treated with external Ringer's solution and internal CsCl solution [30]. Cells were voltage-clamped at −40 mV. When the heteromeric GlyRs were expressed, the picrotoxin sensitivity was tested to confirm that the majority of receptors are heteromers, [30].
(§4) Results are expressed as mean±standard error of the mean of three or more independent experiments. […] Statistical significance was determined using the Student's t-test.

The next assay addresses T2, αWT β-αV25′A GlyR (Homo sapiens, UniProt P23415+P48167, A275I/A296P/F268Y/G272Q/L286I/M270L/M271I/P292M/P300G/S295A/T277S/V266M/V273M/V282I/V305A).
T2 construct: The α R218-Q219 and β R242-Q243 are also the joining sites for chimeras constructed between the ECD and TMD; expressed in transfected cells; host or cells: HEK293 (ATCC)
T2 sequence (P23415 29-449 isoform P23415-2): T1 sequence (P23415 29-449 isoform P23415-2 K304A) with A276K
T2 sequence (P48167+P23415 with tags, fused parts or gaps P48167:V266M/P48167:F268Y/P48167:M270L/P48167:M271I/P48167:G272Q/P48167:V273M/P48167:A275I/P48167:T277S/P48167:V282I/P48167:L286I/P48167:P292M/P48167:S295A/P48167:A296P/P48167:P300G/P23415:V305A): T1 sequence (P48167+P23415 with tags, fused parts or gaps P48167:V266M/P48167:F268Y/P48167:M270L/P48167:M271I/P48167:G272Q/P48167:V273M/P48167:A275I/P48167:T277S/P48167:V282I/P48167:L286I/P48167:P292M/P48167:S295A/P48167:A296P/P48167:P300G) with V301A
It counts as cell-based. The protocol: as §1, §2, §3, §4

Where [1] appears, read: αK24′A β-αWT, HEK293, with glycine at EC50 of α1 homomer.
The mark [2] stands for this setting: αWT β-αV25′A, HEK293, with glycine at EC50 of α1 homomer.

Substitutions are numbered along the chain they refer to.

For `NCC(=O)O` [glycine], the Imax on αK24′A β-αWT GlyR is on record as 8.9±1.9 nA; on αWT β-αV25′A GlyR it was 11.0±1.1 nA. In addition, the nH on αK24′A β-αWT GlyR is 2.0±0.3; at αWT β-αV25′A GlyR, 2.2±0.3.
As for picrotoxin [PTX], the “10uM PTX inhibition (%)” value is listed as 10.0±2.2% on αK24′A β-αWT GlyR (setting [1]) and 8.8±1.6% on αWT β-αV25′A GlyR (setting [2]). Further, the “100uM PTX inhibition (%)” value on αK24′A β-αWT GlyR (setting [1]) was found to be 23±4%; at αWT β-αV25′A GlyR (setting [2]) it was 31±1%.
